Assay results as given in patent US10688099B2, “Methods for modulating the amount of RNA transcripts” (PTC Therapeutics, Inc., priority 2013, dated 2020).

Test system: RNA isoforms in PNN 1-46 SMA type I patient-derived fibroblasts
Experiment: RNA Abundance Modulation (RNA isoform abundance, iFPM, HiSeq RNA sequencing)
Format: cell-based, human
Conditions: 3 μM
Procedure: Cells from a cell line of interest are cultured in conditions sufficient to yield the number of cells capable of generating enough RNA for subsequent sequencing steps. Cells from the tested cell line are contacted with a compound described herein.
To culture said cells, they are seeded, at appropriate concentrations in a volume of media in a cell culture container and incubated for 4, 5, 6, 7, 8, 9, 10, or more hours. A concentrated solution of compound in a vehicle (e.g., DMSO) is then added in sufficient volume to result in the intended final concentration of the compound, for example 100 nM, 500 nM, 1 μM, 5 μM, 10 μM, 15 μM, 20 μM, or more. The cells may also be treated with vehicle alone, as a control. A number of replicates of each concentration or control may be made (e.g., 2 replicates). The cells are then incubated at a constant temperature appropriate for cell culture of the particular cell line (e.g., 37° C.) for 6, 12, 18, 24, 48, or more hours. After incubation, the growth medium is removed and the cells are washed with the appropriate buffer (e.g., PBS). Cells are then removed from adherence to the cell culture container by treatment with a solution containing trypsin, and the trypsin subsequently quenched with the appropriate volume of buffer (e.g., DMEM-FBS). The cells are then pelleted with gentle centrifugation (e.g., ≤90×g centrifugal force) and resuspended in a buffer to lyse the cells for extraction of RNA. The cell lysates may then be frozen (e.g., at −80° C.) or, alternately, may immediately be used in a procedure to purify the RNA (e.g. by use of the RNEASY PLUS® minikit). The RNA from cell lysates is eluted in the appropriate volume of buffer (e.g., RNEASE-FREE H2O®). The resulting purified RNA may then be sequenced (e.g., using RNASeq) or analyzed using a human exon array (e.g., by GENECHIP® human exon array) to determine changes in the RNA levels in those cells treated with compound compared to those cells treated only with DMSO. The purified RNA may also be quantified by other methods known in the art.
Using the RNA data obtained from sequencing, exon array, or other methods, a statistical analysis can reveal changes in the RNA levels of compound-treated compared with control. For example, t-test p-values may be calculated for the data obtained through sequencing and exon array methods in order to compare compound-treated cells to those treated with the DMSO control. […] Analysis of the sequencing and exon array data may then also yield predictions about the cause of the aberrant amount of an RNA transcript in the cells (e.g., perturbation of RNA splicing, RNA transcription, or RNA stability). These predictions may be further confirmed by methods known in the art. For example, RT-PCR and RT-qPCR may be used to confirm the change in amount of RNA transcripts for one or more particular transcripts of interest.
Following the methods described above in Example 1, PNN 1-46 SMA type I patient-derived fibroblasts were treated with 300 nM or 3 μM Compounds 774 and 808 in 0.5% DMSO.
700,000 cells were seeded in 10 mL of medium (DMEM plus 10% FBS) in a T-75 flask. Cells were allowed to attach for at least 4 hrs, after which 50 μL of a 200× compound solution (100% DMSO) was added to each well, and the plate was incubated at 37° C. for 24 hrs.
At the end of the incubation period, the supernatant was removed and the cells where washed with PBS. TrypLE (Invitrogen) express solution was added (e.g. 1.5 mL per one T75 flask). The flasks were incubated for 3 to 5 min at 37° C. The trypsin was then quenched, e.g., by adding 10 mL DMEM-FBS.
Next, the cells were pelleted using gentle centrifugation without exceeding 90×g centrifugal force. The supernatant was removed and the cell pellet was re-suspended in 600 μL RLT buffer (the RLT buffer was supplemented with beta-mercaptoethanol according to the RNeasy protocol manual) by pipetting up and down until the pellet was completely dissolved […]

Question: Which “amp FC (x + 1)” value (U2SURP BC006474) does the source give for `CCc1nc(C)cn2nc(-c3cc(=O)n4cc(C5CCN(C)CC5)cc(C)c4n3)cc12` [Compound 774] here?
Answer: Its value is 1.09.

Question: And the “ave Cpd” value (U2SURP BC006474)?
Answer: Its value is 1249 iFPM.

Question: What about the “FC (x + 1)” value (U2SURP BC111692) of the same compound?
Answer: Its value is 1.9191.

Question: And the “L2FC (x + 1)” value (U2SURP BC111692)?
Answer: The value was 0.940.

Question: And the “L2abs (Cpd-DMSO)” value (U2SURP BC111692)?
Answer: Its value is 3.18.

Question: What about the “abs (Cpd-DMSO)” value (U2SURP BC111692) of the same compound?
Answer: The value was 9 iFPM.

Question: What about the “amp FC (x + 1)” value (U2SURP BC111692) of the same compound?
Answer: The value was 1.92.

Question: And the “ave Cpd” value (U2SURP BC111692)?
Answer: The value was 18 iFPM.

Question: What about the “FC (x + 1)” value (U2SURP NM_001080415) of the same compound?
Answer: The value was 2.2780.

Question: What about the “L2FC (x + 1)” value (U2SURP NM_001080415) of the same compound?
Answer: The value was 1.188.

Question: And the “L2abs (Cpd-DMSO)” value (U2SURP NM_001080415)?
Answer: The value was 7.79.

Question: And the “abs (Cpd-DMSO)” value (U2SURP NM_001080415)?
Answer: The value was 222 iFPM.

Question: And the “amp FC (x + 1)” value (U2SURP NM_001080415)?
Answer: Its value is 2.28.

Question: And the “ave Cpd” value (U2SURP NM_001080415)?
Answer: The value was 395 iFPM.

Question: What about the “FC (x + 1)” value (UBAP2L AJ243668) of the same compound?
Answer: The value was 0.4506.

Question: What about the “L2FC (x + 1)” value (UBAP2L AJ243668) of the same compound?
Answer: The value was −1.150.

Question: And the “L2abs (Cpd-DMSO)” value (UBAP2L AJ243668)?
Answer: The value was 6.40.

Question: What about the “abs (Cpd-DMSO)” value (UBAP2L AJ243668) of the same compound?
Answer: The value was 84 iFPM.

Question: What about the “amp FC (x + 1)” value (UBAP2L AJ243668) of the same compound?
Answer: The value was 2.22.

Question: And the “ave Cpd” value (UBAP2L AJ243668)?
Answer: Its value is 68 iFPM.

Question: What about the “FC (x + 1)” value (UBAP2L AJ243669) of the same compound?
Answer: The value was 0.2687.

Question: What about the “L2FC (x + 1)” value (UBAP2L AJ243669) of the same compound?
Answer: Its value is −1.896.

Question: What about the “L2abs (Cpd-DMSO)” value (UBAP2L AJ243669) of the same compound?
Answer: The value was 6.45.

Question: What about the “abs (Cpd-DMSO)” value (UBAP2L AJ243669) of the same compound?
Answer: The value was 88 iFPM.

Question: What about the “amp FC (x + 1)” value (UBAP2L AJ243669) of the same compound?
Answer: The value was 3.72.

Question: And the “ave Cpd” value (UBAP2L AJ243669)?
Answer: Its value is 31 iFPM.

Question: And the “FC (x + 1)” value (UBAP2L AJ243670)?
Answer: The value was 3.1873.

Question: And the “L2FC (x + 1)” value (UBAP2L AJ243670)?
Answer: The value was 1.672.

Question: What about the “L2abs (Cpd-DMSO)” value (UBAP2L AJ243670) of the same compound?
Answer: The value was 1.13.

Question: And the “abs (Cpd-DMSO)” value (UBAP2L AJ243670)?
Answer: The value was 2 iFPM.

Question: And the “amp FC (x + 1)” value (UBAP2L AJ243670)?
Answer: Its value is 3.19.

Question: What about the “ave Cpd” value (UBAP2L AJ243670) of the same compound?
Answer: Its value is 2 iFPM.

Question: And the “FC (x + 1)” value (UBAP2L AK124294)?
Answer: Its value is 0.4670.

Question: What about the “L2FC (x + 1)” value (UBAP2L AK124294) of the same compound?
Answer: The value was −1.099.

Question: And the “L2abs (Cpd-DMSO)” value (UBAP2L AK124294)?
Answer: Its value is 5.20.

Question: And the “abs (Cpd-DMSO)” value (UBAP2L AK124294)?
Answer: The value was 37 iFPM.

Question: What about the “amp FC (x + 1)” value (UBAP2L AK124294) of the same compound?
Answer: Its value is 2.14.

Question: What about the “ave Cpd” value (UBAP2L AK124294) of the same compound?
Answer: Its value is 31 iFPM.

Question: And the “FC (x + 1)” value (UBAP2L AK302662)?
Answer: Its value is 0.2827.

Question: And the “L2FC (x + 1)” value (UBAP2L AK302662)?
Answer: Its value is −1.822.

Question: What about the “L2abs (Cpd-DMSO)” value (UBAP2L AK302662) of the same compound?
Answer: Its value is 8.14.

Question: And the “abs (Cpd-DMSO)” value (UBAP2L AK302662)?
Answer: The value was 283 iFPM.

Question: What about the “amp FC (x + 1)” value (UBAP2L AK302662) of the same compound?
Answer: The value was 3.54.

Question: And the “ave Cpd” value (UBAP2L AK302662)?
Answer: The value was 110 iFPM.

Question: What about the “FC (x + 1)” value (UBAP2L AK302953) of the same compound?
Answer: The value was 0.5118.

Question: And the “L2FC (x + 1)” value (UBAP2L AK302953)?
Answer: Its value is −0.966.

Question: What about the “L2abs (Cpd-DMSO)” value (UBAP2L AK302953) of the same compound?
Answer: Its value is 8.57.

Question: And the “abs (Cpd-DMSO)” value (UBAP2L AK302953)?
Answer: The value was 381 iFPM.

Question: What about the “amp FC (x + 1)” value (UBAP2L AK302953) of the same compound?
Answer: The value was 1.95.

Question: What about the “ave Cpd” value (UBAP2L AK302953) of the same compound?
Answer: Its value is 399 iFPM.

Question: What about the “FC (x + 1)” value (UBAP2L AK303533) of the same compound?
Answer: The value was 0.0476.

Question: And the “L2FC (x + 1)” value (UBAP2L AK303533)?
Answer: The value was −4.392.

Question: And the “L2abs (Cpd-DMSO)” value (UBAP2L AK303533)?
Answer: Its value is 4.32.

Question: And the “abs (Cpd-DMSO)” value (UBAP2L AK303533)?
Answer: Its value is 20 iFPM.

Question: What about the “amp FC (x + 1)” value (UBAP2L AK303533) of the same compound?
Answer: Its value is 20.99.

Question: What about the “ave Cpd” value (UBAP2L AK303533) of the same compound?
Answer: The value was 0 iFPM.

Question: And the “FC (x + 1)” value (UBAP2L NM_014847)?
Answer: Its value is 0.3090.

Question: What about the “L2FC (x + 1)” value (UBAP2L NM_014847) of the same compound?
Answer: The value was −1.695.

Question: What about the “L2abs (Cpd-DMSO)” value (UBAP2L NM_014847) of the same compound?
Answer: The value was 10.25.

Question: And the “abs (Cpd-DMSO)” value (UBAP2L NM_014847)?
Answer: The value was 1219 iFPM.

Question: What about the “amp FC (x + 1)” value (UBAP2L NM_014847) of the same compound?
Answer: Its value is 3.24.

Question: What about the “ave Cpd” value (UBAP2L NM_014847) of the same compound?
Answer: Its value is 544 iFPM.

Question: And the “FC (x + 1)” value (UBAP2L NM_001127320)?
Answer: Its value is 0.4857.

Question: And the “L2FC (x + 1)” value (UBAP2L NM_001127320)?
Answer: The value was −1.042.

Question: And the “L2abs (Cpd-DMSO)” value (UBAP2L NM_001127320)?
Answer: The value was 10.01.

Question: What about the “abs (Cpd-DMSO)” value (UBAP2L NM_001127320) of the same compound?
Answer: Its value is 1030 iFPM.

Question: What about the “amp FC (x + 1)” value (UBAP2L NM_001127320) of the same compound?
Answer: The value was 2.06.

Question: What about the “ave Cpd” value (UBAP2L NM_001127320) of the same compound?
Answer: The value was 972 iFPM.

Question: What about the “FC (x + 1)” value (UBE2V1 NM_021988) of the same compound?
Answer: The value was 0.9186.

Question: And the “L2FC (x + 1)” value (UBE2V1 NM_021988)?
Answer: Its value is −0.122.

Question: And the “L2abs (Cpd-DMSO)” value (UBE2V1 NM_021988)?
Answer: Its value is 2.64.

Question: And the “abs (Cpd-DMSO)” value (UBE2V1 NM_021988)?
Answer: Its value is 6 iFPM.

Question: What about the “amp FC (x + 1)” value (UBE2V1 NM_021988) of the same compound?
Answer: The value was 1.09.

Question: And the “ave Cpd” value (UBE2V1 NM_021988)?
Answer: The value was 69 iFPM.

Question: And the “FC (x + 1)” value (UBE2V1 NM_022442)?
Answer: The value was 0.2858.
